Experimental data reported in PMC11902257, “Antiprotozoal Aminosteroids from Pachysandra terminalis” (Molecules, 2025).
Values joined by “and” are separate entries in the source; they are usually repeats but may differ in a detail not shown here. Identical values can stand only once. Like-named read-outs stand apart in the source and are kept apart here.

Columns and labels:
Assay type in all cases: cell-based
[1] = cytotoxicity against L-6 rat skeletal myoblasts, resazurin
Procedure: Cytotoxicity against L-6 rat skeletal myoblasts: The L6 rat skeletal myoblast cell line used for cytotoxicity tests was obtained from the American Type Culture Collection (ATCC, Manassas, VA, USA) as ATCC-CRL-1458 [50]. The cells were cultivated in RPMI 1640 medium supplemented with 1% L-glutamine (200mM) and 10% fetal bovine serum. Cultures were maintained at 37 °C in an atmosphere of 5% CO2. Assays were performed in 96-well plates, each well containing RPMI 1640 medium supplemented with 1% L-glutamine (200 mM), 10% fetal bovine serum, and 2 × 10^3 L-6 cells/well. Plates were incubated at 37 °C under a 5% CO2 atmosphere for 24 h. Compounds were dissolved in DMSO (10 mg/mL). After 24 h, serial drug dilutions of eleven 3-fold dilution steps covering a range from 100 to 0.002 μg/mL were prepared, and the plates were incubated at 37 °C under 5% CO2 for 70 h. After 70 h incubation, 10 μL of resazurin solution (12.5 mg resazurin in 100 mL 1xPBS) was added per well, and plates were incubated for an additional 2 h. After that, the plates were read with a Spectramax Gemini EM microplate fluorometer (Molecular Devices, San Jose, CA, USA) using an excitation wavelength of 536 nm and an emission wavelength of 588 nm. Data were treated according to [44] (see below). Podophyllotoxin served as a positive control.
(§1) Bioassay data and statistical methods: In all cases, the readout data were plotted in Microsoft Excel. Half-maximal inhibitory concentrations (IC50 values) were calculated from the sigmoidal dose-response curves by linear regression. Two independent replicates of the assay were performed in all cases, and the results were expressed as arithmetic mean ± deviation from the mean.

[2] = tested on: Plasmodium falciparum (Pf) NF54 strain; assay: in vitro antiplasmodial assay, 3H-hypoxanthine incorporation, erythrocytic stages; settings: for SI (Pf): Selectivity index IC50(Cytotox)/IC50(Pf)
Procedure: Plasmodium falciparum (Pf): Tests were performed against erythrocytic stages of the drug-sensitive NF54 strain. The NF54 strain was obtained from F. Hoffmann-La Roche Limited (Basel, Switzerland). The strain NF54 was originally derived from a patient living near Schiphol Airport, Amsterdam, who had never left the Netherlands. The assay was performed using a 3H-hypoxanthine incorporation assay. Serial compound dilutions were prepared with the medium as indicated above and then added in 96-well plates to parasite cultures incubated in the medium previously described, consisting of RPMI 1640 supplemented with 0.5% ALBUMAX® II, 25 mM Hepes, 25 mM NaHCO3 (pH 7.3), 0.36 mM hypoxanthine, and 100 μg/mL neomycin. The plates were incubated in a humidified atmosphere at 37 °C, 4% CO2, 3% O2, and 93% N2. After 48 h, 0.25 μCi of 3H-hypoxanthine was added to each well. Incubation was continued under identical conditions for a further 24 h. The plates were then harvested using a Betaplate™ cell harvester (Wallac, Zurich, Switzerland). The red blood cells were transferred onto a glass fiber filter and washed with distilled H2O. After drying, filters were inserted into a plastic foil with 10 mL of scintillation fluid and counted with a Betaplate™ liquid scintillation counter (Wallac, Zurich, Switzerland). Data were treated according to [44] (see below). The positive control was chloroquine.
as §1

[3] = tested on: Trypanosoma brucei rhodesiense (Tbr) STIB900 strain; assay: in vitro antitrypanosomal assay, bloodstream forms, resazurin; settings: for SI(Tbr): Selectivity index IC50(Cytotox)/IC50(Tbr)
Procedure: Trypanosoma brucei rhodesiense (Tbr): The STIB900 strain is a derivative of the STIB704 strain isolated from a patient in Ifakara, Tanzania, in 1982 [43]. The bloodstream forms were cultivated as axenic culture in HMI-9 medium, supplemented with 15% heat-inactivated horse serum. Cultures were maintained at 37 °C in an atmosphere of 5% CO2. Test compounds were dissolved in DMSO (10 mg/mL), and serial drug dilutions of eleven 3-fold dilution steps covering a range from 100 to 0.002 μg/mL were prepared in a 96-well plate. Bloodstream-form of T. b rhodesiense strain STIB900 (2 × 10^3/well) was added into the wells. After 68 h incubation, 10 μL of resazurin solution (12.5 mg resazurin in 100 mL 1xPBS) was added per well, and plates were incubated for an additional 4 h. Subsequently, the plates were read with a Spectramax Gemini EM microplate fluorometer (Molecular Devices, San Jose, CA, USA) using an excitation wavelength of 536 nm and an emission wavelength of 588 nm. Data were treated according to [44] (see below). Melarsoprol was used as a positive control.
as §1

[4] = Plasmodium falciparum, NF54, pure compounds, tested as mono- or bis-trifluoroacetates where marked, read-out: IC50 Pf (converted)
[5] = Plasmodium falciparum, NF54, values in brackets, calculated with the molecular masses of the corresponding salts, read-out: IC50 Pf (converted)
[6] = Trypanosoma brucei, pure compounds, tested as mono- or bis-trifluoroacetates where marked, read-out: IC50 Tbr (converted)
[7] = Trypanosoma brucei, values in brackets, calculated with the molecular masses of the corresponding salts, read-out: IC50 Tbr (converted)
[8] = values in brackets, calculated with the molecular masses of the corresponding salts, read-out: IC50 Tbr (converted)
[9] = Plasmodium falciparum, NF54, read-out: IC50 Pf [µg/mL]
[10] = pure compounds, tested as mono- or bis-trifluoroacetates where marked

Structure (SMILES): CN[C@@H]1CC[C@]2(C)[C@H]3CC[C@]4(C)[C@@H]([C@H](C)N(C)C)CC[C@H]4[C@@H]3CC[C@@]2(O)[C@@H]1OC(=O)c1ccccc1 [Compound 17, 5α-Hydroxy-3α,4α-diapachysanaximine A]
- IC50 at 70 h [1]: 12 µg/mL and 16 µM
- IC50 [2, 4]: 1.6 ± 0.4 µg/mL
- IC50 [2, 5]: 2.3 µM
- SI (Pf) ([2]; pure compounds): 7
- SI(Tbr) ([3]; pure compounds): 3
- IC50 [3, 6]: 3 ± 2 µg/mL
- IC50 [3, 7]: 5 µM

Structure (SMILES): CN[C@@H](C)[C@H]1CC[C@H]2[C@@H]3CC=C4C[C@@H](N(C)C)CC[C@]4(C)[C@H]3CC[C@]12C [Compound 2, 5,6-Dehydro-desacyl-epipachysamine A]
- IC50 at 70 h [1]: 19 µg/mL and 33 µM
- IC50 [2, 4]: 0.898 ± 0.002 µg/mL
- IC50 [2, 5]: 1.53 µM
- SI (Pf) ([2]; pure compounds): 21
- SI(Tbr) ([3]; pure compounds): 10
- IC50 [3, 6]: 1.9 ± 0.2 µg/mL
- IC50 [3, 7]: 3.2 µM

Structure (SMILES): C[C@@H]([C@H]1CC[C@H]2[C@@H]3CC[C@H]4C[C@@H](NC(=O)c5cccnc5)CC[C@]4(C)[C@H]3CC[C@]12C)N(C)C [Compound 4, Epipachysamine B]
- IC50 at 70 h [1]: 5.2 µg/mL and 7.7 µM
- IC50 [2, 4]: 2.3 ± 0.2 µg/mL
- IC50 [2, 5]: 3.4 µM
- SI (Pf) ([2]; pure compounds): 2
- SI(Tbr) ([3]; pure compounds): 3
- IC50 [3, 6]: 1.6 ± 0.5 µg/mL
- IC50 [3, 7]: 2.4 µM

Structure (SMILES): CN[C@@H]1CC[C@]2(C)[C@H]3CC[C@]4(C)[C@@H]([C@H](C)N(C)C)CC[C@H]4[C@@H]3CC[C@H]2[C@@H]1OC(=O)C=C(C)C [Compound 10, Pachysandrine D]
- IC50 at 70 h [1]: 6.5 µg/mL and 9.5 µM
- IC50 [2, 4]: 0.66 ± 0.13 µg/mL
- IC50 [2, 5]: 1.01 µM
- SI (Pf) ([2]; pure compounds): 10
- IC50 ([2]; values in brackets, calculated with the molecular masses of the corresponding salts, read-out: IC50 Pf (converted)): 0.97 µM
- SI(Tbr) ([3]; pure compounds): 9
- IC50 [3, 6]: 0.69 ± 0.03 µg/mL
- IC50 [3, 7]: 0.95 µM
- IC50 [3, 8]: 1.01 µM

Structure (SMILES): CC(C)=CC(=O)N[C@@H]1[C@H](O)[C@@H]2CC[C@@H]3[C@H](CC[C@]4(C)[C@@H]([C@H](C)N(C)C)CC[C@@H]34)[C@@]2(C)C[C@@H]1O [Compound 16, 4β-Hydroxy-hookerianamide N]
- IC50 at 70 h [1]: 45 µg/mL and 79 µM
- IC50 [2, 4]: 6.1 ± 0.5 µg/mL
- IC50 [2, 5]: 10.6 µM
- SI (Pf) ([2]; pure compounds): 7
- SI(Tbr) ([3]; pure compounds): 6
- IC50 [3, 6]: 8.1 ± 0.6 µg/mL
- IC50 [3, 7]: 14.1 µM

Structure (SMILES): CC(=O)[C@H]1CC[C@H]2[C@@H]3CCC4C[C@@H](N(C)C)CC[C@]4(C)[C@H]3CC[C@]12C (stereo partly drawn) [Compound 9, 3β-Dimethylamino-pregnane-20-one]
- IC50 at 70 h ([1]; L6 cells, values in brackets, calculated with the molecular masses of the corresponding salts, read-out: IC50 Cytotox (converted)): 14 µM
- IC50 at 70 h ([1]; pure compounds, L6 cells, tested as mono- or bis-trifluoroacetates where marked, read-out: IC50 Cytotox (converted)): 6 ± 2 µg/mL
- IC50 ([2]; Plasmodium falciparum, NF54, read-out: IC50 Pf (µM)): 18 µM
- IC50 [2, 9]: 8 ± 2 µg/mL
- SI (Pf) ([2]; pure compounds): 0.8
- SI(Tbr) ([3]; pure compounds): 3
- IC50 [3, 6]: 2.21 ± 0.06 µg/mL
- IC50 [3, 7]: 4.8 µM

Structure (SMILES): O=C(O)C(F)(F)F [Trifluoroacetate, reference compound]
- IC50 Pf [2, 10]: >100 µg/mL
- IC50 Tbr [3, 10]: >100 µg/mL

Structure (SMILES): C[C@@H]([C@H]1CC[C@H]2[C@@H]3CC=C4C[C@@H](N(C)C)CC[C@]4(C)[C@H]3CC[C@]12C)N(C)C [Compound 13, Sarcodinine]
- IC50 at 70 h [1]: 11 µg/mL and 18 µM
- IC50 [2, 4]: 4.6 ± 0.7 µg/mL
- IC50 [2, 5]: 7.7 µM
- SI (Pf) ([2]; pure compounds): 2
- SI(Tbr) ([3]; pure compounds): 4
- IC50 [3, 6]: 2.6 ± 0.4 µg/mL
- IC50 [3, 7]: 4.3 µM

Structure (SMILES): CC(=O)N(C)[C@@H](C)[C@H]1CC[C@H]2[C@@H]3CC[C@H]4C[C@@H](N(C)C)CC[C@]4(C)[C@H]3CC[C@]12C [Compound 14, Epipachysamine A]
- IC50 at 70 h [1]: 12 µg/mL and 23 µM
- IC50 [2, 4]: 18 ± 1 µg/mL
- IC50 [2, 5]: 36 µM
- SI (Pf) ([2]; pure compounds): 0.6
- SI(Tbr) ([3]; pure compounds): 5
- IC50 [3, 6]: 2.14 ± 0.05 µg/mL
- IC50 [3, 7]: 4.14 µM

Structure (SMILES): C[C@@H]([C@H]1CC[C@H]2[C@@H]3CC[C@H]4[C@@H](O)[C@@H](NC(=O)c5ccccc5)[C@@H](O)C[C@]4(C)[C@H]3CC[C@]12C)N(C)C [Compound 18, 2β,3β,4β-Diapachysamine K]
- IC50 at 70 h [1]: 17 µg/mL and 28 µM
- IC50 [2, 4]: 47 ± 7 µg/mL
- IC50 [2, 5]: 80 µM
- SI (Pf) ([2]; pure compounds): 0.4
- SI(Tbr) ([3]; pure compounds): 3
- IC50 [3, 6]: 5.9 ± 0.4 µg/mL
- IC50 [3, 7]: 9.9 µM

Structure (SMILES): C[C@@H]([C@H]1CC[C@H]2[C@@H]3CC[C@H]4[C@H](O)[C@@H](O)CC[C@]4(C)[C@H]3CC[C@]12C)N(C)C [Compound 11, Terminaline]
- IC50 at 70 h [1]: 28 µg/mL and 60 µM
- IC50 [2, 4]: 3 ± 1 µg/mL
- IC50 [2, 5]: 7 µM
- SI (Pf) ([2]; pure compounds): 8
- SI(Tbr) ([3]; pure compounds): 5
- IC50 [3, 6]: 5.9 ± 0.3 µg/mL
- IC50 [3, 7]: 12.4 µM

Structure (SMILES): Nc1nc(N)nc(Nc2ccc([As]3SCC(CO)S3)cc2)n1 (stereo not shown) [Melarsoprol, reference compound]
- IC50 ([3]; Trypanosoma brucei, read-out: IC50 Tbr): 0.007 ± 0.002 µg/mL
- IC50 ([3]; Trypanosoma brucei, read-out: IC50 Tbr [µg/mL]): 0.007 ± 0.002 µg/mL

Structure (SMILES): CNC1CCC2(C)C3CCC4(C)C(CCC4C(C)N(C)C)C3CCC2C1OC(=O)c1ccccc1 (stereo not shown) [Compound 7]
- IC50 at 70 h [1]: 10 µg/mL and 15 µM
- IC50 [2, 4]: 0.45 ± 0.09 µg/mL
- IC50 [2, 5]: 0.63 µM
- SI (Pf) ([2]; pure compounds): 23
- SI(Tbr) ([3]; pure compounds): 133
- IC50 [3, 6]: 0.079 ± 0.001 µg/mL
- IC50 [3, 7]: 0.11 µM
- IC50 [3, 8]: 0.112 µM

Structure (SMILES): COc1cc([C@@H]2c3cc4c(cc3[C@H](O)[C@H]3COC(=O)[C@H]23)OCO4)cc(OC)c1OC [Podophyllotoxin, reference compound]
- IC50 at 70 h ([1]; crude extracts and acid/base fractions, L6 cells, mean of two determinations ± deviation, read-out: IC50 Cytotox (converted)): 0.009 ± 0.001 µg/mL

Structure (SMILES): CCN(CC)CCCC(C)Nc1ccnc2cc(Cl)ccc12 (stereo not shown) [Chloroquine, reference compound]
- IC50 ([2]; Plasmodium falciparum, NF54, read-out: IC50 Pf): 0.002 µg/mL
- IC50 [2, 9]: 0.002 µg/mL
